Assay results taken from patent US6426355B1, “Heterocyclic carboxamide-containing thiourea inhibitors of herpes viruses containing phenylenediamine group” (American Home Products, priority 1998, dated 2002).
≈ marks a conversion by molar mass, not a printed value.

Assays:
[1] = test system: HCMV recombinant mutant virus (RV145); assay: HCMV microtiter plate assay (beta-glucuronidase reporter); type: cell-based, Human Cytomegalovirus; conditions: for IC50 (ug/ml) HCMV: HCMV in human foreskin fibroblasts; for IC50: Human betaherpesvirus 5, Fibroblast, read-out: IC50 (ug/ml) HCMV
How it was run: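 Human foreskin fibroblasts were infected with RV145 in the presence of inhibitor. β-glucuronidase under a viral promoter served as the replication marker. At 96 h post-infection, lysates in pH 7.0 phosphate with Triton X-100/sarkosyl were assayed colorimetrically or fluorometrically, and IC50 was estimated from varying inhibitor amounts.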

[2] = test system: VZV strain Ellen; assay: VZV Antiviral (ELISA) assay; type: cell-based; conditions: for IC50 (ug/ml) VZV / % inhibition 10 ug/ml VZV: VZV strain Ellen in HFF cells; for % inhibition 10 ug/ml VZV: at 10 ug/ml; for IC50: Human alphaherpesvirus 3, VZV strain Ellen in HFF cells, read-out: IC50 (ug/ml) VZV; for inhibition at 10 µg/mL: Human alphaherpesvirus 3, read-out: % inhibition 10 ug/ml VZV, at 10 ug/ml, VZV strain Ellen in HFF cells
How it was run: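 HFF cells infected with VZV Ellen at low multiplicity (<0.1) overnight were seeded at 3.5×10^4 cells/well in DMEM with 2% FBS plus compound and incubated three days at 37° C., 5% CO2. Viral replication was read by ELISA against glycoprotein II with β-galactosidase fluorogenic readout (ex 365/em 450 nm); IC50 relative to no-compound fluorescence.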

[3] = test system: HSV-1; assay: HSV Antiviral (ELISA) assay; type: cell-based; conditions: for IC50 (ug/ml) HSV: HSV-1 in Vero cells; for IC50: Human alphaherpesvirus 1, HSV-1 in Vero cells, read-out: IC50 (ug/ml) HSV
How it was run: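 Vero cells in DMEM/2% FBS pretreated with compound 30 min before HSV-1 infection (MOI 0.006), then ~24 h at 37 °C. Viral gD detected by ELISA with β-galactosidase secondary and 4-methylumbelliferyl-galactoside (ex 365/em 450 nm); IC50 from fluorescence versus untreated infected cells.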

| SMILES | IC50 (ug/ml) HCMV [1] | IC50 (ug/ml) VZV [2] | % inhibition 10 ug/ml VZV [2] | IC50 (ug/ml) HSV [3] | IC50 [1] | IC50 [2] | inhibition at 10 µg/mL [2] | IC50 [3] |
| --- | --- | --- | --- | --- | --- | --- | --- | --- |
| CN1CCC(N(C)c2ccc(NC(=S)Nc3ccc(NC(=O)c4ccco4)cc3)cc2Cl)CC1 [Example 344] | 0.25 µg/mL (≈ 0.502 µM) | 7 µg/mL (≈ 14.1 µM) | 72% | 4 µg/mL (≈ 8.03 µM) | – | – | – | – |
| Cc1nc2cc(NC(=S)Nc3ccc(NC(=O)c4ccco4)cc3)ccc2[nH]1 [Example 495] | 3 µg/mL (≈ 7.66 µM) | >10 µg/mL | 27% | >10 µg/mL | – | – | – | – |
| CN(C)CC(=O)Nc1ccc(NC(=S)Nc2ccc(NC(=O)c3ccco3)cc2)cc1Cl [Example 361] | 0.25 µg/mL (≈ 0.53 µM) | >10 µg/mL | 26% | 8 µg/mL (≈ 17 µM) | – | – | – | – |
| CN(C)c1ccc(NC(=S)Nc2ccc(NC(=O)c3csnn3)cc2)cc1Cl [Example 902, [1,2,3]Thiadiazole-4-carboxylic acid {4-[3-(3-chloro-4-dimethylamino-phenyl)-thioureido]-phenyl}-amide] | – | – | – | – | 0.12 µg/mL (≈ 0.277 µM) | > 10 µg/mL | 10% | > 10 µg/mL |
| NNC(=O)c1cccc(NC(=S)Nc2ccc(NC(=O)c3ccco3)cc2)c1 [Example 447] | >10 µg/mL | >10 µg/mL | – | >10 µg/mL | – | – | – | – |
| CN1CCC(N(C)c2ccc(NC(=S)Nc3ccc(NC(=O)c4csnn4)cc3)cc2Cl)CC1 [Example 904, [1,2,3]Thiadiazole-4-carboxylic acid [4-(3-{3-chloro-4-[methyl-(1-methyl-piperidin-4-yl)-amino]-phenyl}-thioureido)-phenyl]-amide] | – | – | – | – | 0.4 µg/mL (≈ 0.775 µM) | > 10 µg/mL | 58% | 12 µg/mL (≈ 23.3 µM) |
| CC(NC(=S)Nc1ccc(NC(=O)c2cccs2)cc1)c1ccc(F)cc1 (centres unmarked) [Example 1128, Thiophene-2-carboxylic acid (4-{3-[1-(4-fluoro-phenyl)-ethyl]-thioureido}-phenyl)-amide] | – | – | – | – | 1.3 µg/mL (≈ 3.25 µM) | > 10 µg/mL | – | > 10 µg/mL |
| O=C(Nc1ccc(NC(=S)Nc2ccc(Br)c(Cl)c2)cc1)c1ccccc1F [Example 965, N-{4-[3-(4-Bromo-3-chloro-phenyl)-thioureido]-phenyl} -2-fluoro-benzamide] | – | – | – | – | 0.008 µg/mL (≈ 0.0167 µM) | – | 36% | > 10 µg/mL |
| O=C(Nc1ccc(NC(=S)Nc2cccc(Cl)c2)cc1)c1ccccc1F [Example 994, N-{4-[3-(3-Chloro-phenyl)-thioureido]-phenyl}-2-fluoro-benzamide] | – | – | – | – | 0.07 µg/mL (≈ 0.175 µM) | > 10 µg/mL | – | > 10 µg/mL |
| CC(=O)Nc1ccc(NC(=S)Nc2cc(Cl)ccc2Cl)cc1 [Example 980, N-{4-[3-(2,5-Dichloro-phenyl)-thioureido]-phenyl} -acetamide] | – | – | – | – | 0.05 µg/mL (≈ 0.141 µM) | – | 56% | > 10 µg/mL |
| CC(NC(=S)Nc1ccc(NC(=O)c2ccncc2)cc1)c1ccc(F)cc1 (centres unmarked) [Example 759] | >10 µg/mL | 2 µg/mL (≈ 5.07 µM) | – | >10 µg/mL | – | – | – | – |
| N#Cc1cccc(NC(=S)Nc2ccc(NC(=O)c3csnn3)cc2)c1 [Example 453] | 0.07 µg/mL (≈ 0.184 µM) | 3 µg/mL (≈ 7.89 µM) | – | >10 µg/mL | – | – | – | – |
| CCCCc1nc(C(=O)Nc2ccc(NC(=S)Nc3ccc(Cl)c(C(F)(F)F)c3)cc2)cs1 [Example 1135, 2-Butyl-thiazole-4-carboxylic acid {4-[3-(4-chloro-3-trifluoromethyl-phenyl)-thioureido]-phenyl}-amide] | – | – | – | – | 1.3 µg/mL (≈ 2.53 µM) | 7.5 µg/mL (≈ 14.6 µM) | – | 3.6 µg/mL (≈ 7.02 µM) |
| O=C(Nc1ccc(NC(=S)Nc2ccccc2)cc1)c1ccco1 [Example 911, Furan-2-carboxylic acid [4-(3-phenyl-thioureido)-phenyl]-amide] | – | – | – | – | 0.3 µg/mL (≈ 0.889 µM) | > 10 µg/mL | 25% | > 10 µg/mL |
| Nc1c(Br)cc(NC(=S)Nc2ccc(NC(=O)c3csnn3)cc2)cc1Br [Example 521] | 0.04 µg/mL (≈ 0.0757 µM) | 3 µg/mL (≈ 5.68 µM) | 97% | 10 µg/mL (≈ 18.9 µM) | – | – | – | – |
| O=C(Nc1ccc(NC(=S)Nc2cccc(Br)c2)cc1)c1csnn1 [Example 513] | 0.011 µg/mL (≈ 0.0253 µM) | >10 µg/mL | 10% | >10 µg/mL | – | – | – | – |
| COc1cc(OC)c(NC(=S)Nc2ccc(NC(=O)c3nnsc3-c3ccoc3)cc2)cc1Cl [Example 280] | >10 µg/mL | >10 µg/mL | – | >10 µg/mL | – | – | – | – |
| O=C(Nc1ccc(NC(=S)Nc2ccc(C(F)(F)F)c(Cl)c2)cc1)c1ccccc1F [Example 961, N-{4-[3-(3-Chloro-4-trifluoromethyl-phenyl)-thioureido]-phenyl} -2-fluoro-benzamide] | – | – | – | – | 0.006 µg/mL (≈ 0.0128 µM) | – | 20% | > 10 µg/mL |
